These results are taken from patent US20170081338A1, “SUBSTITUTED HETEROARYL COMPOUNDS AND METHODS OF USE” (Sunshine Lake Pharma Co., Ltd., priority 2015, published 2017).

A short description of series [1]: Pharmacokinetics after intravenous and oral administration in rats. The class given is in vivo. As to conditions: for Clearance (CL) after iv dosing / AUC(0-t) / half-life / Vd: dose 1 mg/kg, iv dosing; for F: oral bioavailability; for AUC(0-t) / half-life / Vd: rat, plasma; for Vd: read-out: Vss. A digest of the protocol: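 Compounds dosed IV at 0.5, 1 or 2 mg/kg and orally at 0.5, 1, 5 or 10 mg/kg in rats, as solution, suspension or capsule formulations. Serial blood sampled out to 24 h and plasma stored frozen. Plasma levels quantified by LC/MS/MS in ESI MRM mode.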

The target of a further series is T1, Aurora-B (h) (Homo sapiens, UniProt Q96GD4).
T1 construct: purchased Millipore UK Ltd (contract assay service)
T1 sequence (Q96GD4 whole entry): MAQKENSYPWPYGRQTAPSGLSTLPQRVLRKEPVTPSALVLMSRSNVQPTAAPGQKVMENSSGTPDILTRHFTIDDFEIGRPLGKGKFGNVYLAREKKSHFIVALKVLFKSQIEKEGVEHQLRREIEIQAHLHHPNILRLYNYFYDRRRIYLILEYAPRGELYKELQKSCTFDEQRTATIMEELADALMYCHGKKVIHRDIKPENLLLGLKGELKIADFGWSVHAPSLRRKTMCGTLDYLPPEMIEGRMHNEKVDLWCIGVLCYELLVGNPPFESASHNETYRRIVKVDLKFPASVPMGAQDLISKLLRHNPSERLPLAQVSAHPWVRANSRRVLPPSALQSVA
In words: Aurora-B (h) kinase assay. The class given is biochemical. The procedure:
(§1) Kinase assays can be performed by measurement of incorporation of γ-^33P ATP into immobilized myelin basic protein (MBP). High binding white 384 well plates (Greiner) are coated with MBP (Sigma #M-1891) by incubation of 60 μL/well of 20 μg/mL MBP in Tris-buffered saline (TBS; 50 mM Tris pH 8.0, 138 mM NaCl, 2.7 mM KCl) for 24 h at 4° C. Plates are washed 3× with 100 μL TBS. Kinase reactions are carried out in a total volume of 34 μL in kinase buffer (according to the need to make, for example, 5 mM Hepes pH 7.6, 15 mM NaCl, 0.01% bovine gamma globulin (Sigma #1-5506), 10 mM MgCl2, 1 mM DTT, 0.02% TritonX-100). Compound dilutions are performed in DMSO and added to assay wells to a final DMSO concentration of 1%. Each data point is measured in duplicate, and at least two duplicate assays are performed for each individual compound determination. Enzyme is added to final concentrations of 10 nM or 20 nM, for example. A mixture of unlabeled ATP and γ-^33P ATP is added to start the reaction (2×10^6 cpm of γ-^33P ATP per well (3000 Ci/mmole) and 10 μM unlabeled ATP, typically. The reactions are carried out for 1 h at room temperature with shaking. Plates are washed 7× with TBS, followed by the addition of 50 µL/well scintillation fluid (Wallac). Plates are read using a Wallac Trilux counter. This is only one format of such assays; various other formats are possible, as known to one skilled in the art.
The above assay procedure can be used to determine the IC50 for inhibition and/or the inhibition constant, Ki. The IC50 is defined as the concentration of compound required to reduce the enzyme activity by 50% under the condition of the assay. The IC50 value is estimated by preparing a 10 point curve using a 1/2 log dilution series (for example, a typical curve may be prepared using the following compound concentrations: 3 μM, 1 μM, 0.3 μM, 0.1 μM, 0.03 μM, 0.01 μM, 0.003 μM, 0.001 μM, 0.0003 μM and 0 μM).
Aurora-B (h) is incubated with 8 mM MOPS pH 7.0, 0.2 mM EDTA, 30 μM AKRRRLSSLRA, 10 mM MgAcetate and [γ-^33PATP] (specific activity approx. 500 cpm/pmol, concentration as required). The reaction is initiated by the addition of the MgATP mix. After incubation for 40 minutes at room temperature, the reaction is stopped by the addition of a 3% phosphoric acid solution. 10 μL of the reaction is then spotted onto a P30 filtermat and washed three times for 5 minutes in 75 mM phosphoric acid and once in methanol prior to drying and scintillation counting.
The kinase assays described herein were performed at Millipore UK Ltd, Dundee Technology Park, Dundee DD2 1SW, UK.

A further series deals with T2, JAK2 (h) (Homo sapiens, UniProt O60674).
T2 construct: purchased Millipore UK Ltd (contract assay service)
T2 sequence (O60674 whole entry): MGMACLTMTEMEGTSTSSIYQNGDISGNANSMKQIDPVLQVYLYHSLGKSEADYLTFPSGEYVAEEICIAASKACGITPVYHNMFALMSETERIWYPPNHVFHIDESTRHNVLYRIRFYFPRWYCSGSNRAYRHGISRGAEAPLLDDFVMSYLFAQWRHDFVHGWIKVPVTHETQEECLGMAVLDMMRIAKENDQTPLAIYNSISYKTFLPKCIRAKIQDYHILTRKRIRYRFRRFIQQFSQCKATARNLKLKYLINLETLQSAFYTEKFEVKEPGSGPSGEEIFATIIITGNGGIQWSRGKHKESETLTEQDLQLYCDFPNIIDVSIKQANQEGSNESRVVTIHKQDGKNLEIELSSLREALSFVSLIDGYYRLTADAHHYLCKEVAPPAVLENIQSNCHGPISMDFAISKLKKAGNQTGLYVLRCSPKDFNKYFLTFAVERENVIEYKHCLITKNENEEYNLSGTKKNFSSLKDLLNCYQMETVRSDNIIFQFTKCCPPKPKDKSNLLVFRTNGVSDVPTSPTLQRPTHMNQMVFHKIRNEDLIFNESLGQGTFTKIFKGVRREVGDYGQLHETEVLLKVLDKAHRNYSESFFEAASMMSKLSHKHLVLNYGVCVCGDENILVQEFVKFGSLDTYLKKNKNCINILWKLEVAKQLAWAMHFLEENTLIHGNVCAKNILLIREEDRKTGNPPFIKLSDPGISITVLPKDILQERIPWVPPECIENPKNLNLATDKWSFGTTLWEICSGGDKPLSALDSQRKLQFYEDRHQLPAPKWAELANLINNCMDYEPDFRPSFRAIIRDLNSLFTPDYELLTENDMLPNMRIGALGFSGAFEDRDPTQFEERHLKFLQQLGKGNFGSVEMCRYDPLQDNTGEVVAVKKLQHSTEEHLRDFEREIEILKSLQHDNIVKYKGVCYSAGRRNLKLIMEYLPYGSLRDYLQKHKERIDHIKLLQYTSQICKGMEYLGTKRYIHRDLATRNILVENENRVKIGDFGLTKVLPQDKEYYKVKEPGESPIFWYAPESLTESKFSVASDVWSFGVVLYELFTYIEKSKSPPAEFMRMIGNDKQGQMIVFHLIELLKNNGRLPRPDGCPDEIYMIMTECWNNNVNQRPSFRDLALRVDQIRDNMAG
The series is described as follows: JAK2 (h) kinase assay. It counts as biochemical. The procedure: as §1, with “Enzyme is added to final concentrations of 10 nM or 20 nM, for example.” left out, “art. […]” for “art.”

SMILES strings stand for the structures.

The AUC(0-t) is exposure summed from dosing to a finite time, without extrapolation to infinity. As usually defined, the half-life is the time needed for the level to fall by half in the phase considered. High values mean slow loss, low ones fast loss. One may read the IC50 as the midpoint of a concentration-inhibition curve. Low readings indicate greater potency in that assay, high ones weaker potency in that assay.

With `CC(C)CS(=O)(=O)N[C@H]1COC2C1OC[C@H]2Nc1nc(Nc2cnn(C)c2)ncc1Cl` (stereo partly drawn) [Ex. 2, N-((3S,6R)-6-((5-chloro-2-((1-methyl-1H-pyrazol-4-yl)amino)pyrimidin-4-yl)amino)hexahydrofuro[3,2-b]furan-3-yl)-2-methylpropane-1-sulfonamide], in series [1], the “Clearance (CL) after iv dosing” value is recorded as 1.10 L/h/kg, the F was 101.3%, the AUC(0-t) amounted to 908 ng·h/mL and the half-life was 69 min. In addition, the Vd in series [1] came to 0.63 L/kg. The same compound gave an IC50 on Aurora-B (h) of 29 nM. At JAK2 (h), inhibition was half-maximal at 350 nM (IC50).
As for `Cn1cc(Nc2ncc(Cl)c(N[C@@H]3COC4C3OC[C@@H]4NS(=O)(=O)CC3CC3)n2)cn1` (stereo partly drawn) [Ex. 25, N-((3S,6R)-6-((5-chloro-2-((1-methyl-1H-pyrazol-4-yl)amino)pyrimidin-4-yl)amino)hexahydrofuro[3,2-b]furan-3-yl)-1-cyclopropylmethanesulfonamide], in series [1], the “Clearance (CL) after iv dosing” value turned out to be 1.82 L/h/kg, the F stood at 84.2%, the AUC(0-t) was determined as 547 ng·h/mL and the half-life was 18 min. In series [1], the Vd was 0.83 L/kg. This compound showed an IC50 on Aurora-B (h) of 24 nM.
`Cn1cc(Nc2ncc(Cl)c(N[C@@H]3COC4C3OC[C@@H]4NS(=O)(=O)CC(C)(C)C#N)n2)cn1` (stereo partly drawn) [Ex. 26, N-((3S,6R)-6-((5-chloro-2-((1-methyl-1H-pyrazol-4-yl)amino)pyrimidin-4-yl)amino)hexahydrofuro[3,2-b]furan-3-yl)-2-cyano-2-methylpropane-1-sulfonamide]: in series [1], the “Clearance (CL) after iv dosing” value is reported as 2.27 L/h/kg, the F was determined as 62.7%, the AUC(0-t) amounted to 442 ng·h/mL and the half-life is 35.4 min. Also, the Vd in series [1] is 0.75 L/kg. The compound also came in with an IC50 against Aurora-B (h) of 11 nM.
Regarding `Cn1cc(Nc2ncc(Cl)c(N[C@@H]3COC4C3OC[C@@H]4NS(=O)(=O)CC(F)(F)F)n2)cn1` (stereo partly drawn) [Ex. 27, N-((3S,6R)-6-((5-chloro-2-((1-methyl-1H-pyrazol-4-yl)amino)pyrimidin-4-yl)amino)hexahydrofuro[3,2-b]furan-3-yl)-2,2,2-trifluoroethanesulfonamide], in series [1], the “Clearance (CL) after iv dosing” value was found to be 1.73 L/h/kg, the F was determined as 66.1%, the AUC(0-t) stood at 581 ng·h/mL and the half-life is 62.4 min. Further, the Vd in series [1] is 0.85 L/kg. At Aurora-B (h), this compound came in with a half-inhibitory concentration (IC50) of 8 nM.
